Test results published in patent publication US4720387A (priority 1983, dated 1988).

Key:
[1] = relationship between antihypertensive effect and blood-level of pinacidil; set-up: species or system inpatients suffering from hypertension; details: in vivo
Excerpt: The term ΔMBP means the difference between the values of Mean Blood Pressure before and after the administration, and FIGS. 1 and 2 show the average of blood-levels or ΔMBP on the five inpatients.

[2] = adverse reaction at various dosages in inpatients; format: in vivo, inpatients suffering from hypertension; details: higher dosage affording sufficient therapeutic time
[3] = in vivo; cited from earlier work
[4] = blood-level and excretion of native pinacidil; format: in vivo, inpatients suffering from hypertension
[5] = in vivo
Excerpt: [referred to Exp. 6-II), Table 12].
The frequency of the adverse reaction was compared between the two groups.

CC(N/C(=N\C#N)Nc1ccncc1)C(C)(C)C (stereo not drawn) [pinacidil, N"-cyano-N-4-pyridyl-N'-1,2,2-trimethylpropylguanidine]
blood-level at which the antihypertensive effect was minimum (minimum effective blood-level) [1]: around 20 ng/ml | blood-level at which the antihypertensive effect was satisfactory [1]: over 30 ng/ml | adverse reaction at higher dosage [2]: usually induced the adverse reaction (i.e. headache) | dose proportionality of blood-level [3]: increases in proportion to its dose level | time the effective blood-level is kept ([4]; highest dosage of unprepared pinacidil to avoid the adverse reaction): about 6 hours | half-life ([4]; human, blood, administered after a meal, read-out: biological half-life period): 1 to 2 h | Tmax ([4]; human, blood, administered after a meal, read-out: time to maximum concentration): 1 to 3 h | blood-level at which side-effects (headache) occasionally occur [5]: over 100 ng/ml | maximum safety level (blood-level) [5]: 100 ng/mL
